Results reported in ChEMBL document CHEMBL1201862, “PubChem BioAssay data set” (2004).
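Grown in 96-well plates, cells were treated for 48 hours with each compound at five concentrations. Insufficient inhibition: endpoint recorded as highest concentration tested. At the GI50, growth is halved.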 Calls of active or inactive are those of the source. No stated cut-off is given here; in the data, active = GI50 up to about 1.1 µM and inactive = higher.

How the values were obtained:
Assay in all cases: NCI-60 cell line screen, 48 h
SW-620 = system: SW-620
COLO 205 = system: COLO 205
CCRF-CEM = system: CCRF-CEM
KM-20L2 = system: KM-20L2
UO-31 = system: UO-31
DLD-1 = system: DLD-1
HOP-62 = system: HOP-62
HOP-18 = system: HOP-18
HCC 2998 = system: HCC 2998
HOP-92 = system: HOP-92
SF-539 = system: SF-539
OVCAR-5 = system: OVCAR-5
HCT-15 = system: HCT-15
CAKI-1 = system: CAKI-1
UACC-62 = system: UACC-62
OVCAR-4 = system: OVCAR-4
IGROV-1 = system: IGROV-1
XF498 = system: XF498
EKVX = system: EKVX
Malme-3M = system: Malme-3M
UACC-257 = system: UACC-257
A498 = system: A498
M19-MEL = system: M19-MEL
LOX IMVI = system: LOX IMVI
TK-10 = system: TK-10
SK-OV-3 = system: SK-OV-3
SK-MEL-2 = system: SK-MEL-2
HL-60 = system: HL-60
NCI-H460 = system: NCI-H460
MOLT-4 = system: MOLT-4
A549 = system: A549
SF-268 = system: SF-268
DMS-273 = system: DMS-273
OVCAR-3 = system: OVCAR-3
786-0 = system: 786-0
U-251 = system: U-251
ACHN = system: ACHN
KM12 = system: KM12
SK-MEL-5 = system: SK-MEL-5
SF-295 = system: SF-295
OVCAR-8 = system: OVCAR-8
SN12C = system: SN12C
RPMI-8226 = system: RPMI-8226
SNB-75 = system: SNB-75
SNB-19 = system: SNB-19
DMS-114 = system: DMS-114
K562 = system: K562
HCT-116 = system: HCT-116
LXFL 529 = system: LXFL 529
SNB-78 = system: SNB-78
M14 = system: M14
HT-29 = system: HT-29
SR = system: SR
NCI-H522 = system: NCI-H522
NCI-H226 = system: NCI-H226
SK-MEL-28 = system: SK-MEL-28
NCI-H23 = system: NCI-H23
RXF 393 = system: RXF 393

Measured: GI50

CC1CCC(C(C)(C)c2ccccc2)C(=O)C1 (configuration not stated)
> 100 µM: HCT-15
inactive: SW-620 > 100 µM | COLO 205 > 100 µM | CCRF-CEM > 100 µM | KM-20L2 > 100 µM | UO-31 18.3 µM | DLD-1 > 100 µM | HOP-62 > 100 µM | HOP-18 24.8 µM | HCC 2998 > 100 µM | HOP-92 18.7 µM | SF-539 > 100 µM | OVCAR-5 > 100 µM | CAKI-1 74.8 µM | UACC-62 > 100 µM | OVCAR-4 > 100 µM | IGROV-1 > 100 µM | XF498 > 100 µM | EKVX > 100 µM | Malme-3M > 100 µM | UACC-257 > 100 µM | A498 > 100 µM | M19-MEL > 100 µM | LOX IMVI > 100 µM | TK-10 > 100 µM | SK-OV-3 > 100 µM | SK-MEL-2 > 100 µM | HL-60 25.6 µM | NCI-H460 > 100 µM | MOLT-4 > 100 µM | A549 > 100 µM | SF-268 > 100 µM | DMS-273 > 100 µM | OVCAR-3 > 100 µM | 786-0 > 100 µM | U-251 > 100 µM | ACHN > 100 µM | KM12 > 100 µM | SK-MEL-5 > 100 µM | SF-295 > 100 µM | OVCAR-8 > 100 µM | SN12C > 100 µM | RPMI-8226 95.3 µM | SNB-75 > 100 µM | SNB-19 > 100 µM | DMS-114 75.7 µM | K562 > 100 µM | HCT-116 > 100 µM | LXFL 529 > 100 µM | SNB-78 > 100 µM | M14 > 100 µM | HT-29 > 100 µM

O=C(Cl)c1cc([N+](=O)[O-])cc([N+](=O)[O-])c1
> 100 µM: HCT-15
inactive: SW-620 > 100 µM | SR > 100 µM | COLO 205 > 100 µM | CCRF-CEM > 100 µM | UO-31 > 100 µM | DLD-1 > 100 µM | NCI-H522 > 100 µM | HOP-62 > 100 µM | HCC 2998 > 100 µM | HOP-92 > 100 µM | SF-539 > 100 µM | OVCAR-5 > 100 µM | CAKI-1 > 100 µM | UACC-62 > 100 µM | OVCAR-4 > 100 µM | IGROV-1 > 100 µM | XF498 > 100 µM | EKVX > 100 µM | Malme-3M > 100 µM | UACC-257 > 100 µM | M19-MEL > 100 µM | NCI-H226 > 100 µM | LOX IMVI > 100 µM | TK-10 > 100 µM | SK-OV-3 > 100 µM | SK-MEL-2 > 100 µM | SK-MEL-28 > 100 µM | HL-60 > 100 µM | NCI-H460 > 100 µM | MOLT-4 > 100 µM | A549 > 100 µM | SF-268 > 100 µM | DMS-273 > 100 µM | 786-0 > 100 µM | U-251 > 100 µM | ACHN > 100 µM | KM12 > 100 µM | SK-MEL-5 > 100 µM | SF-295 > 100 µM | RPMI-8226 > 100 µM | SNB-75 > 100 µM | SNB-19 > 100 µM | DMS-114 > 100 µM | K562 > 100 µM | HCT-116 > 100 µM | LXFL 529 > 100 µM | SNB-78 > 100 µM | M14 > 100 µM | HT-29 > 100 µM | NCI-H23 > 100 µM

CC1=N/C(=C\c2ccc(C)cc2)C(=O)O1
inactive: SW-620 > 100 µM | SR > 100 µM | COLO 205 > 100 µM | CCRF-CEM > 100 µM | KM-20L2 > 100 µM | UO-31 > 100 µM | DLD-1 > 100 µM | NCI-H522 > 100 µM | HCC 2998 > 100 µM | HOP-92 > 100 µM | OVCAR-5 > 100 µM | CAKI-1 > 100 µM | UACC-62 > 100 µM | OVCAR-4 > 100 µM | IGROV-1 > 100 µM | XF498 > 100 µM | Malme-3M > 100 µM | M19-MEL > 100 µM | TK-10 > 100 µM | RXF 393 > 100 µM | SK-OV-3 > 100 µM | SK-MEL-2 > 100 µM | SK-MEL-28 > 100 µM | MOLT-4 > 100 µM | OVCAR-3 > 100 µM | U-251 > 100 µM | KM12 > 100 µM | SK-MEL-5 > 100 µM | SF-295 > 100 µM | OVCAR-8 > 100 µM | SN12C > 100 µM | SNB-19 > 100 µM | K562 > 100 µM | LXFL 529 > 100 µM | SNB-78 > 100 µM | M14 > 100 µM | HT-29 > 100 µM | NCI-H23 > 100 µM
> 100 µM: HCT-15
